Reference: paper PMC9040621 (2021)

Each compound was assayed on d(CCAATTGG)2 (DNA, duplex) CCAATTGG (assay: differential scanning calorimetry). Details: Na+ (sodium phosphate buffer); 100 μM DNA, compound/DNA = 1; free Tm 41.73 °C.
For `O=c1cc(-c2ccccc2)oc2cc(O)c(O)c(O)c12`, the ΔTm was 13.88 °C.
With `O=c1cc(-c2ccccc2)oc2cc(O)cc(O)c12` the ΔTm was 12.14 °C.
Compound `O=c1cc(-c2ccccc2)oc2ccccc12` has a ΔTm of -2.07 °C.
